The record followed here is ChEMBL document CHEMBL6134884, “Identification of JNJ-61803534, a RORγt Inverse Agonist for the Treatment of Psoriasis” (J Med Chem, 2025).

Converted amounts (≈) assume the structure as drawn.

In data set [1] the target is T1, Nuclear receptor ROR-gamma (Homo sapiens, UniProt P51449).
T1 sequence (P51449 whole entry): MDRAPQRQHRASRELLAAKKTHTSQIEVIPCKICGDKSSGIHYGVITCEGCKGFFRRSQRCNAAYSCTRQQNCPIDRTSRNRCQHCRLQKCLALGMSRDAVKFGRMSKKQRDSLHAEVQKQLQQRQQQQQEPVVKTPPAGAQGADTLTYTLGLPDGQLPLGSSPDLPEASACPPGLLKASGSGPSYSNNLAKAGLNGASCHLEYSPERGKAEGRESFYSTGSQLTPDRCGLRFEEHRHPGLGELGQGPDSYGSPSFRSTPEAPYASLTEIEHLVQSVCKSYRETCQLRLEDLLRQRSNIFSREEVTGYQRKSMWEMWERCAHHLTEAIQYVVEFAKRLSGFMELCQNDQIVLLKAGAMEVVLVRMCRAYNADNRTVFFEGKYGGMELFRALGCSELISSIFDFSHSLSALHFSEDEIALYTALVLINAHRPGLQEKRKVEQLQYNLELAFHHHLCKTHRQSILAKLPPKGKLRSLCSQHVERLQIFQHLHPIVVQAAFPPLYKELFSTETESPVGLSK
Put plainly: Inverse agonist activity at human RORgammat by mammalian 1-hybrid assay.

The target in data set [2] is T2, PXR (Homo sapiens, UniProt O75469).
T2 sequence (O75469 whole entry): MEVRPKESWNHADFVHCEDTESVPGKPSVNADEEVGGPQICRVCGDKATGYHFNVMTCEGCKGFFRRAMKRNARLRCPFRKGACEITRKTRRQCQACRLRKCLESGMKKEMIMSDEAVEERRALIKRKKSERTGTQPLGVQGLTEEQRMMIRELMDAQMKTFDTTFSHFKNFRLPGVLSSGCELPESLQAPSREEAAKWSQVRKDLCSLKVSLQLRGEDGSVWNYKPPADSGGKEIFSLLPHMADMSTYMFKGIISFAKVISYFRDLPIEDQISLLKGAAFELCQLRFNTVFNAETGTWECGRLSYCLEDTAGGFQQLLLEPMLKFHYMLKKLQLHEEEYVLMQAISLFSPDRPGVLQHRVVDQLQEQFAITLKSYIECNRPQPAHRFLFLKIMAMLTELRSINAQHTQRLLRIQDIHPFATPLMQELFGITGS
Put plainly: Activation of human PXR at 5 uM relative to control. To be noted: read-out: Activity. The format is toxicity.

Data set [3] concerns the target T3, Nuclear receptor ROR-beta (Homo sapiens, UniProt Q92753).
T3 sequence (Q92753 whole entry): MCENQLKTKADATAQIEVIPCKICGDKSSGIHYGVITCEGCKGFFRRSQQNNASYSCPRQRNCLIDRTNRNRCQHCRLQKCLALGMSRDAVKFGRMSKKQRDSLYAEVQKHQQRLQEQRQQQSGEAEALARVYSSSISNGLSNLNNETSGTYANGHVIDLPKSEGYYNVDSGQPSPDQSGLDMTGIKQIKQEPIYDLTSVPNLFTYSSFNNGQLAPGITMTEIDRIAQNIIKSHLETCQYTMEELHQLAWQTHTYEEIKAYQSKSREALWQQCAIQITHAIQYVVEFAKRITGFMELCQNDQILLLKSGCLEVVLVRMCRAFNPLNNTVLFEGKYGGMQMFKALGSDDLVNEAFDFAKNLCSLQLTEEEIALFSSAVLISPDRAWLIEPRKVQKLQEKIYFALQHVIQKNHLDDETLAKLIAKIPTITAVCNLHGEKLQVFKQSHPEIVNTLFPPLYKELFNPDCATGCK
The data set is described as follows: Inverse agonist activity at human RORbeta assessed as dissociation constant by thermofluor assay.

For data set [4], the target named is T1, Nuclear receptor ROR-gamma. Put plainly: Inverse agonist activity at RORgammat in human whole blood assessed as IL-17A production incubated for 1 hrs by ELISA analysis. The class given is tissue-based. (In general: ELISA stands for enzyme-linked immunosorbent assay.)
The nature of data set [5]: Aqueous solubility of the compound at pH 7. The class given is physicochemical. The note with it: aqueous solution.
Data set [6] has as its target T4, Nuclear receptor subfamily 1 group I member 2 (Homo sapiens, UniProt O75469).
T4 sequence (O75469 whole entry): T2 sequence (O75469 whole entry)
The data set is described as follows: Activation of human PXR at 1 uM relative to control. The format is toxicity.

Data set [7] in a line: Aqueous solubility of the compound at pH 2. The class given is physicochemical. The note with it: aqueous solution.
Data set [8] is described as follows: Solubility of compound in SGF. The class given is physicochemical.
Data set [9] has as its target T2, PXR. The data set is described as follows: Activation of human PXR at 10 uM relative to control. To be noted: read-out: Activity. The format is toxicity.
Data set [10] addresses Cytochrome P450 3A4 (Homo sapiens, UniProt P08684). Put plainly: Induction of CYP3A4 in human hepatocytes at 10 uM relative to control. The class given is ADME, cell-based, Hepatocyte.
A short description of data set [11]: Solubility of compound in FaSSIF. The class given is physicochemical.
Data set [12] has as its target T1, Nuclear receptor ROR-gamma. Put plainly: Inverse agonist activity at N-terminal his-tagged wild type human RORgammat LBD domain expressed in Escherichia coli assessed as dissociation constant by thermofluor assay. On the technique in general: In DSF a fluorescence change marks the thermal transition of the protein.
Data set [13] in a line: Drug uptake in male rat plasma at 50 mg/kg, po after 5 days. The class given is ADME, organism-based. The note with it: in vivo, 120 h, time 5 day.
The nature of data set [14]: Cmax in male Sprague-Dawley rat at 1 mg/kg, iv or 5 mg/kg, po measured 24 hrs post dose by LC-MS/MS analysis. The class given is ADME, organism-based. To be noted: in vivo.

Cytochrome P450 3A4, sequence (P08684 whole entry): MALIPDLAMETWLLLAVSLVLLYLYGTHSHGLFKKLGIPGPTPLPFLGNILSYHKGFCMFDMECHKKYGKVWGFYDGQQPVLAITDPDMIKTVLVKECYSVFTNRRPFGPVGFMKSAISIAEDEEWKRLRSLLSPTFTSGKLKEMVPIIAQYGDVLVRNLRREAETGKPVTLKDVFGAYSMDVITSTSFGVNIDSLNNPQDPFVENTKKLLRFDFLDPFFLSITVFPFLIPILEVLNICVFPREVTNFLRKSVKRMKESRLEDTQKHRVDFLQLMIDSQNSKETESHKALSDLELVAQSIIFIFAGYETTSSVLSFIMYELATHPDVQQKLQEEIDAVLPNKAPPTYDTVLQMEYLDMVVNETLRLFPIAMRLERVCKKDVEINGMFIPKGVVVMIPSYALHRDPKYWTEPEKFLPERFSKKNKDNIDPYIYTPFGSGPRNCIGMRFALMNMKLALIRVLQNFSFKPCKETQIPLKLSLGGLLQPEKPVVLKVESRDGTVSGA

Broadly, the IC50 is the point on the concentration scale where inhibition reaches its midpoint. In [1], `Cc1c(S(N)(=O)=O)cc(-c2ccc(S(=O)(=O)NC(C)(C)C)cc2)n1CC1CCCCC1` came in with an IC50 of 1780 nM.
As usually defined, the Kd is the constant that tells how readily two partners part at equilibrium. The solubility is the dissolved amount per volume that the medium holds. Lower therefore signals a poorly soluble substance. As to `C[C@H]1CC(F)(F)CN1C(=O)c1nc(C(=O)NCC(C)(C)O)sc1-c1ccc(C(O)(C(F)(F)F)C(F)(F)F)c(Cl)c1Cl`, the activity at 5 µM in data set [2] is 50%. Also, in [3], the Kd was found to be 2300 nM. Besides, the IC50 in [4] was 120 nM. The solubility in data set [5] and in data set [7] was < 4 µM throughout. In [6], this compound showed an Activity of 27%.
For `C[C@H]1CCCN1C(=O)c1nc(C(=O)NCC(C)(C)O)sc1-c1ccc(C(O)(C(F)(F)F)C(F)(F)F)cc1C(F)F`, the solubility came to 22 µM (≈ 13.3 µg/mL) in data set [8], 13 µM (≈ 7.85 µg/mL) in data set [5], 99 µM (≈ 59.7 µg/mL) in [11] and 12 µM (≈ 7.24 µg/mL) in [7]. Also, the activity at 10 µM in data set [9] is 74%. Also, the Kd in data set [3] was 13000 nM. Moreover, the Activity in data set [10] was 33%; in data set [6], 27%.
As for `C[C@H]1C[C@@H](F)CCN1C(=O)c1nc(C(=O)NCC(C)(C)O)sc1-c1ccc(C(O)(C(F)(F)F)C(F)(F)F)c(Cl)c1Cl`, the activity at 5 µM in data set [2] came to 40%. In addition, the Kd in [3] was 1000 nM. The IC50 in data set [4] amounted to 210 nM. Besides, the solubility in data set [5] and in data set [7] was < 4 µM throughout. This compound also showed an Activity in [6] of 14%.
For `Cc1cc(C(O)(C(F)(F)F)C(F)(F)F)ccc1-c1sc(C(=O)NCC(C)(C)O)nc1C(=O)N1CCC[C@@H]1C`, the solubility was determined as 63 µM (≈ 35.8 µg/mL) in data set [8], 86 µM (≈ 48.8 µg/mL) in data set [5], 250 µM (≈ 142 µg/mL) in data set [11] and 35 µM (≈ 19.9 µg/mL) in [7]. Also, the activity at 10 µM in [9] came to 31%. Besides, the Kd in data set [3] worked out at 15000 nM. The Activity is recorded as 16% in data set [10] and 12% in data set [6]. In data set [4], the IC50 was 530 nM.
With `CN(C(=O)c1nc(C(=O)NCC(C)(C)O)sc1-c1ccc(C(O)(C(F)(F)F)C(F)(F)F)c(Cl)c1Cl)C1CCC1`, the activity at 5 µM in [2] amounted to 9.1%. Further, the Kd in data set [3] was 2300 nM; in data set [12], 0.4 nM. The half-maximal inhibitory concentration (IC50) in data set [1] amounted to 9.4 nM. The compound also gave an Activity in data set [6] of 1.9%.
`C[C@H](NS(=O)(=O)c1ccc(-c2sc(C(=O)NCC(C)(C)O)nc2C(=O)N2CCC(F)CC2)c(Cl)c1Cl)C(F)(F)F` came in with an Activity in data set [6] of 13%.
As for `C[C@H]1CCCCN1C(=O)c1nc(C(=O)NCC(C)(C)O)sc1-c1ccc(C(O)(C(F)(F)F)C(F)(F)F)cc1C(F)F`, the solubility was < 4 µM in data set [8], < 4 µM in data set [5], 14 µM (≈ 8.65 µg/mL) in [11] and < 4 µM in data set [7]. Further, the activity at 10 µM in [9] is 84%. Further, the Kd in data set [3] was determined as 850 nM. The same compound returned an Activity in data set [6] of 28%.
Turning to `CCN(CC)C(=O)c1nc(C(=O)NCC(C)(C)O)sc1-c1ccc(C(O)(C(F)(F)F)C(F)(F)F)c(Cl)c1Cl`, in [13], the Drug uptake result was “Active”. Also, the activity at 5 µM in data set [2] worked out at 76%. In addition, the Kd in data set [3] is 3500 nM. Further, the Activity in data set [10] was 16%; in [6], 32%. Besides, the solubility in data set [5] and in data set [7] was < 4 µM throughout.
With `Cc1c(C(N)=O)cc(-c2ccc(C(O)(C(F)(F)F)C(F)(F)F)cc2)n1CC1CCCCC1`, the IC50 in data set [1] came to 1700 nM.
For the compound `CCN(C(=O)c1nc(C(=O)NCC(C)(C)O)sc1-c1ccc(C(O)(C(F)(F)F)C(F)(F)F)c(Cl)c1Cl)C1CCC1`, the activity at 5 µM in data set [2] stood at 21%. The dissociation constant Kd was 1100 nM in data set [3] and 0.2 nM in data set [12]. In data set [6], the Activity stood at 10%.
Take `C[C@H]1CCCCN1C(=O)c1nc(C(=O)NCC(C)(C)O)sc1-c1ccc(C(O)(C(F)(F)F)C(F)(F)F)cc1Cl`: the solubility in data set [8] is < 4 µM; in data set [5], < 4 µM; in [11], 77 µM (≈ 46.4 µg/mL); in data set [7], < 4 µM. Also, in data set [9], the activity at 10 µM was found to be 25%. Also, the figures for the Kd in [3] and in data set [12] were 430 nM and 0.058 nM, respectively. Besides, the IC50 in data set [4] is 81 nM. The Activity in data set [6] worked out at 13%.
In the case of `CC(C)(O)CNC(=O)c1nc(C(=O)N2CCC(F)CC2)c(-c2ccc(C(O)(C(F)(F)F)C(F)(F)F)c(Cl)c2Cl)s1`, the activity at 5 µM in data set [2] was determined as 14%. Moreover, the Kd in data set [3] worked out at 1900 nM. In addition, in [4], the IC50 came out at 890 nM. The solubility in data set [5] and in data set [7] was < 4 µM in each case. In data set [6], this compound came in with an Activity of 1.5%.
What is called Cmax is the maximum level reached in the sampled fluid or tissue. Consider `CCN(CC)C(=O)c1nc(C(=O)N2C[C@H](O)C[C@H](O)C2)sc1-c1ccc(C(O)(C(F)(F)F)C(F)(F)F)c(Cl)c1Cl`, for which, in [2], the activity at 5 µM came to 4.7%. In [3], the Kd was determined as 13000 nM. For the same compound, the IC50 in data set [4] worked out at 190 nM. Further, the solubility in data set [5] came to 41 µM (≈ 26.2 µg/mL); in [7], 52 µM (≈ 33.2 µg/mL). In addition, the Activity in [6] amounted to 2.7%. This compound had a Cmax in data set [14] of 100 nM.
In the case of `C[C@H]1CCCN1C(=O)c1nc(C(=O)NCC(C)(C)O)sc1-c1ccc(C(O)(C(F)(F)F)C(F)(F)F)cc1Cl`, the solubility in data set [8] was 6.3 µM (≈ 3.7 µg/mL); in data set [5], < 4 µM; in data set [11], 130 µM (≈ 76.4 µg/mL); in [7], 6.3 µM (≈ 3.7 µg/mL). Besides, the activity at 10 µM in data set [9] stood at 27%. For the same compound, the Kd is 4900 nM in data set [3] and 0.63 nM in data set [12]. Moreover, the Activity was 11% in data set [10] and 3.6% in [6]. Moreover, the IC50 in [4] amounted to 240 nM.
On to `Cc1cc(C(O)(C(F)(F)F)C(F)(F)F)ccc1-c1sc(C(=O)NCC(C)(C)O)nc1C(=O)N1CCCC[C@@H]1C`, for which the solubility is < 4 µM in [8], < 4 µM in data set [5], 4.6 µM (≈ 2.68 µg/mL) in data set [11] and < 4 µM in data set [7]. Besides, in data set [9], the activity at 10 µM amounted to 24%. Besides, the Kd worked out at 1400 nM in data set [3] and 0.25 nM in data set [12]. Moreover, the Activity is reported as 10% in data set [10] and 8% in data set [6]. In addition, in [4], the IC50 came out at 160 nM.
